Holding throughout (type): biochemical
In test [1] the target is Human DNA polymerase beta (hpol β) (Homo sapiens, UniProt P06746). As to the kind of experiment: Fluorescence-based polymerase assay, hpol β.
For test [2], the target named is T1, hpol ι (Homo sapiens, UniProt Q9UNA4).
T1 sequence (Q9UNA4 26-446): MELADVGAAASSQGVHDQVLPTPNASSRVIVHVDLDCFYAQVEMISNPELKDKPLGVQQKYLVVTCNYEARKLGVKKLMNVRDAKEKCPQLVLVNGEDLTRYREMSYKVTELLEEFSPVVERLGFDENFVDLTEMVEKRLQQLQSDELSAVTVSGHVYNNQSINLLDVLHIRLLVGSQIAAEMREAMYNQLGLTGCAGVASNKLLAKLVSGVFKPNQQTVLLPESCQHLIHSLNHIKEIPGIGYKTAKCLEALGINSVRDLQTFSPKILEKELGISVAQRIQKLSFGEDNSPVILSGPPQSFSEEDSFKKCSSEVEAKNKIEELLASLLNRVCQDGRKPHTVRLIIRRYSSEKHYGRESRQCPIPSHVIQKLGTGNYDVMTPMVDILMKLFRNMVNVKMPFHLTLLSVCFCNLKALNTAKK
As to the kind of experiment: Fluorescence-based polymerase assay, hpol ι.

The target of test [3] is T2, hetero-dimeric hpol γ (Homo sapiens, UniProt P54098).
T2 sequence (P54098 1-1239): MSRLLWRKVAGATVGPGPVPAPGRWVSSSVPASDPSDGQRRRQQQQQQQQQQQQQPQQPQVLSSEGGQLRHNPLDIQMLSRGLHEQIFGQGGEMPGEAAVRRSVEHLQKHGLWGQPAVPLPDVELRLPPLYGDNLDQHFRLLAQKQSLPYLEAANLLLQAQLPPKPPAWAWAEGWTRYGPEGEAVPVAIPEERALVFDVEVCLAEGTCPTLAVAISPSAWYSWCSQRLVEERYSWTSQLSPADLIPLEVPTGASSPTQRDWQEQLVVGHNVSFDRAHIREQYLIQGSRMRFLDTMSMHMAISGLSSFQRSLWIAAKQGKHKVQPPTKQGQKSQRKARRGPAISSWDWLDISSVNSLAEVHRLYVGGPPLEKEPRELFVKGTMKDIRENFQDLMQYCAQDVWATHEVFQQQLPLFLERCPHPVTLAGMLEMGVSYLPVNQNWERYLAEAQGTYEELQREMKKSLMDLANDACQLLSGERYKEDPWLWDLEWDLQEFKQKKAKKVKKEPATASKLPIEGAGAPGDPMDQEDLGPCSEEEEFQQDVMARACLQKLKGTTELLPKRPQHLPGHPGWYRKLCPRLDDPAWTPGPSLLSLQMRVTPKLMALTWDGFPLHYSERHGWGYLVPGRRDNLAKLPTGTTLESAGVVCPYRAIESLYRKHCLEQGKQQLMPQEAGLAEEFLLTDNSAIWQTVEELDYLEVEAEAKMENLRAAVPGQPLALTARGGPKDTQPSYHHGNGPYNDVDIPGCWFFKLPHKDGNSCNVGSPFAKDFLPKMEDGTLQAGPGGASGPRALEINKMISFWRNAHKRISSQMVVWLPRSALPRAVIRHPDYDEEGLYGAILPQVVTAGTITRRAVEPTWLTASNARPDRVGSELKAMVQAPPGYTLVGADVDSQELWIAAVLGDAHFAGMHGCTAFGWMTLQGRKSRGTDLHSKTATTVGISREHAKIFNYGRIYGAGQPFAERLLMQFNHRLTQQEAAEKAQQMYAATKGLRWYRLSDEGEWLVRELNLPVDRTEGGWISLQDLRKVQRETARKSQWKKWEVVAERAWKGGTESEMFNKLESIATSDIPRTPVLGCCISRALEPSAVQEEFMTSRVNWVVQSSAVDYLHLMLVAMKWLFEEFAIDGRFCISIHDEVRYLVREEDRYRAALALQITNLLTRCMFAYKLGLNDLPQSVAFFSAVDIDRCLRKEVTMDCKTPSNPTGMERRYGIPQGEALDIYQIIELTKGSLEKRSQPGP
T2 sequence (Q9UHN1 26-485 partner limits assumed): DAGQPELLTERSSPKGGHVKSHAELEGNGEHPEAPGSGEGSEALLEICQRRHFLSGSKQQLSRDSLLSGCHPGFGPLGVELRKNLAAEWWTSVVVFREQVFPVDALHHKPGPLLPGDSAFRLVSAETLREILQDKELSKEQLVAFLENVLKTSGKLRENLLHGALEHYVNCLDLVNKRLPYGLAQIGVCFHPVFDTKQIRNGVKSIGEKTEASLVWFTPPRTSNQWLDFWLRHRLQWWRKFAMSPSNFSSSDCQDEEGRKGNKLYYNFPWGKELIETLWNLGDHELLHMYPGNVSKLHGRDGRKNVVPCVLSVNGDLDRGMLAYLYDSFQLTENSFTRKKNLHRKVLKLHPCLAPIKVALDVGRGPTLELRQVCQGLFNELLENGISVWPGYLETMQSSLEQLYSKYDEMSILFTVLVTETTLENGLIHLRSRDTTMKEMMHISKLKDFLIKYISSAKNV
The test is described as follows: Fluorescence-based polymerase assay, hpol γ.

Each structure is given as a SMILES string.

Broadly, the IC50 is the concentration that inhibits the measured activity by half. The low end stands for greater potency in that assay, the high end for weaker potency in that assay. As to `O=C1NC(=S)NC(=O)C1=Cc1cn(C(=O)c2ccccc2Br)c2ccc(Cl)cc12` [ITBA-12, 5-((1-(2-bromobenzoyl)-5-chloro-1H-indol-3-yl)methylene)-2-thioxodihydropyrimidine-4,6(1H,5H)-dione], the IC50 in test [1] was 41 ± 24 µM; in test [2] it was ~80 µM; in test [3], 49 ± 6 µM. Moreover, in test [1] (hpol β versus hpol η), the “Fold difference in IC50 between hpol η and hpol β” value was ~ 1.4 fold.
